# In patent US20180326080A1, “POLYMER-BASED THERAPEUTICS FOR INDUCTIVE BROWNING OF FAT” (Purdue Research Foundation, priority 2015, published 2018):
# Key:
# [1] = test system: diet induced obese (DIO) mouse model; test: Local injection of DBZ-NPs into inguinal WAT of diet-induced obese mice; type: in vivo; conditions: in solution and nontargeted NP forms, vs nontreated obese mice
# Procedure: All procedures regarding animal maintenance and experimental use were performed according to the regulation presented by Purdue University's Animal Care and Use Committee. 10-week-old male die-induced obese (DIO) mice with the C57BL/6 background were purchased from Taconic and housed under normal condition at Purdue University. High-fat diet (Research Diets #D12492, 60% fat) was used to induce and maintain obesity in the mice. Mice with average body weight of 36 g at 14 weeks started to receive nanoparticle treatment. […]
# For GTT, mice were intraperitoneally injected with 100 mg/ml D-glucose (2 g kg-1 body weight) after 16 h fasting. Blood was drawn from tails and glucose levels were measured by a glucometer (Accu-Check Active, Roche). […] Glucose concentrations were measured in the blood drawn from tails. […]
# Serum levels of free fatty acids, glucose, cholesterol, and triglycerides from fasted DIO mice after treatment of nanoparticles for 5 weeks were examined by standard kits from Randox Laboratories. The insulin level in the serum was measured by ELISA according to the manufacturer's instructions (ALPCO). […]
# Total RNA was extracted from cells or tissues through Trizol (Life Technologies) in accordance with the manufacture's protocol. […] The quantitative PCR was performed on the Roche Light Cycler 96 PCR System (Roche). […]
# [2] = test system: cultured white adipocytes; test: Notch inhibition and brown fat gene expression in cultured white adipocytes; type: cell-based; conditions: vs DMSO
# Description: (§1) Pharmacological inhibition of Notch signaling induces browning of white adipocytes during in vitro culture. Notch signaling is inhibited in cultured white adipocytes with the γ-secretase inhibitor DAPT (N—[N-(3,5-difluorophenacetyl)-1-alanyl]-S-phenylglycine t-butyl ester).
# [3] = test system: cultured white adipocytes; test: Oxygen consumption rate of adipocytes treated with DAPT; type: cell-based; conditions: vs adipocytes treated with DMSO
# Description: as §1
SMILES,body weight gain [1],Notch signaling (mRNA levels of Notch targets) [2],"expression of brown fat specific genes Ucp1, Cidea, Prdm16 and Ppargc1a [2]",oxygen consumption rate (OCR) [3]
CN(CCOc1ccc(CC2SC(=O)NC2=O)cc1)c1ccccn1 (stereo not shown) [Rosi],no difference in body weight gain,,,
"C[C@H](NC(=O)Cc1cc(F)cc(F)c1)C(=O)N[C@H](C(=O)OC(C)(C)C)c1ccccc1 [DAPT, (N—[N-(3,5-difluorophenacetyl)-1-alanyl]-S-phenylglycinet-butyl ester)]",,inhibited Notch signaling,upregulated,higher
